These results are taken from patent US4225586A, “Antibiotic SB-72310” (Takeda Chemical Industries, Ltd., priority 1978, dated 1980).

Where a name gives a salt, the structure may show the parent alone.

Series [1] deals with Alcaligenes faecalis IFO 13111. Description: Antimicrobial spectrum, paper disk method. In kind it is cell-based. As to conditions: IFO13111, 25 μl of 10 mg/ml in 8 mm paper disks, Trypticasesoy-broth-agar, read-out: Inhibition diameter. The procedure:
(§1) The biological characteristics of SB-72310 are as follows.
(§2) Antimicrobial spectra of SB-72310(Inhibition diameter (mm)
(§3) by paper disk method) (25 μl of test solution of 10 mg/ml
(§4) is absorbed in paper disks of 8 mm diameter)
(§5) Medium = Trypticasesoy-broth-agar

The test system of a further series is Bacillus cereus IFO 3466. In words: Antimicrobial spectrum, paper disk method. As to conditions: IFO3466, 25 μl of 10 mg/ml in 8 mm paper disks, Trypticasesoy-broth-agar, read-out: Inhibition diameter. In kind it is cell-based. The procedure: as §1, §2, §3, §4, §5
Series [2] deals with Bacillus subtilis IFO 3513. Description: Antimicrobial spectrum, paper disk method. As to conditions: IFO3513, 25 μl of 10 mg/ml in 8 mm paper disks, Trypticasesoy-broth-agar, read-out: Inhibition diameter. It is filed as cell-based. The procedure:
as §1, §2, §3, §4, §5

Series [3] has as its system Comamonas terrigena IFD 12685. Description: Antimicrobial spectrum, paper disk method. In kind it is cell-based. As to conditions: IFD12685, 25 μl of 10 mg/ml in 8 mm paper disks, Trypticasesoy-broth-agar, read-out: Inhibition diameter. The procedure:
as §1, §2, §3, §4, §5

For series [4], the system named is Escherichia coli NIHJ JC-2. In words: Antimicrobial spectrum, paper disk method. In kind it is cell-based. As to conditions: NIHJJC2, 25 μl of 10 mg/ml in 8 mm paper disks, Trypticasesoy-broth-agar, read-out: Inhibition diameter. The procedure: as §1, §2, §3, §4, §5
Series [5] has as its system Klebsiella pneumoniae IFO 3318. In words: Antimicrobial spectrum, paper disk method. As to conditions: IFO3318, 25 μl of 10 mg/ml in 8 mm paper disks, Trypticasesoy-broth-agar, read-out: Inhibition diameter. In kind it is cell-based. The procedure:
as §1, §2, §3, §4, §5

Series [6] concerns Proteus mirabilis IFO 3849. Description: Antimicrobial spectrum, paper disk method. It is filed as cell-based. As to conditions: IFO3849, 25 μl of 10 mg/ml in 8 mm paper disks, Trypticasesoy-broth-agar, read-out: Inhibition diameter. The procedure: as §1, §2, §3, §4, §5
Series [7] deals with Proteus vulgaris IFO 3045. In words: Antimicrobial spectrum, paper disk method. It is filed as cell-based. As to conditions: IFO3045, 25 μl of 10 mg/ml in 8 mm paper disks, Trypticasesoy-broth-agar, read-out: Inhibition diameter. The procedure:
as §1, §2, §3, §4, §5

The subject of series [8] is Pseudomonas fluorescens IFO 3081. In words: Antimicrobial spectrum, paper disk method. It is filed as cell-based. As to conditions: IFO3081, 25 μl of 10 mg/ml in 8 mm paper disks, Trypticasesoy-broth-agar, read-out: Inhibition diameter. The procedure: as §1, §2, §3, §4, §5
Series [9] has as its system Salmonella typhimurium IFO 12529. Description: Antimicrobial spectrum, paper disk method. It is filed as cell-based. As to conditions: Salmonella enterica, 25 μl of 10 mg/ml in 8 mm paper disks, Trypticasesoy-broth-agar, read-out: Inhibition diameter. The procedure:
as §1, §2, §3, §4, §5

For the next series, the system named is Sarcina lutea IFO 3232. In words: Antimicrobial spectrum, paper disk method. In kind it is cell-based. As to conditions: Micrococcus luteus, IFO3232, 25 μl of 10 mg/ml in 8 mm paper disks, Trypticasesoy-broth-agar, read-out: Inhibition diameter. The procedure:
as §1, §2, §3, §4, §5

The subject of series [10] is Serratia marcescens IFO 12648. Description: Antimicrobial spectrum, paper disk method. It is filed as cell-based. As to conditions: IFO12648, 25 μl of 10 mg/ml in 8 mm paper disks, Trypticasesoy-broth-agar, read-out: Inhibition diameter. The procedure: as §1, §2, §3, §4, §5
Series [11] relates to Staphylococcus aureus FDA 209P. Description: Antimicrobial spectrum, paper disk method. It is filed as cell-based. As to conditions: FDA209P, 25 μl of 10 mg/ml in 8 mm paper disks, Trypticasesoy-broth-agar, read-out: Inhibition diameter. The procedure:
as §1, §2, §3, §4, §5

Another series has as its system gram-positive bacteria. Description: Antibacterial activity against gram-positive bacteria. It is filed as cell-based. As to conditions: paper disk method, Table 2. The procedure: as §1, §2, §3, §4, §5
A further series concerns gram-negative bacteria. In words: Antibacterial activity against gram-negative bacteria. In kind it is cell-based. As to conditions: paper disk method, Table 2. The procedure: as §1, §2, §3, §4, §5
A short description of the next series: Solubility in solvents. It is filed as physicochemical.
Series [12] in a line: Stability in aqueous solution. In kind it is physicochemical. The procedure:
12. Stability: Stable in aqueous solution in the range of pH 3 to 7 at 60° C. for 10 minute heating; unstable over pH 8.5.
10. Stability: Stable in aqueous solution in the range of pH 3 to 7 at 60° C. for 10 minute heating; unstable over pH 8.5.

Series [13] in a line: Basicity, neutrality or acidity. It is filed as physicochemical.
In the next series the test system is mice. Description: Acute toxicity, intravenous. In kind it is in vivo. The procedure: The acute toxicity of the sodium salt of Antibiotic SB-72310 is low, with no deaths being encountered when 500 mg/kg of the salt was administered to mice by the intravenous route.
Where [14] appears, read: aqueous solution, pH 3 to 7, 60° C., 10 minute heating.

As for `COC1(NC(=O)C(C)NC(=O)CCC(N)C(=O)O)CN(S(=O)(=O)O)C1=O` (stereo not shown) [SB-72310], the zone of inhibition at 10000 µg/mL in series [1] stood at 23 mm; in the series on Bacillus cereus IFO 3466, 14.5 mm; in series [2] it was 22 mm; in series [3], 25 mm; in [4] it was 14.5 mm; in series [5], 12.5 mm. Further, the zone of inhibition at 10000 µg/mL in [6] worked out at 19 mm; in series [7] it was 18 mm; in [8], 12.5 mm; in series [9], 18.5 mm; in the series with Sarcina lutea IFO 3232, 23 mm; in [10], 17 mm. In series [11], the zone of inhibition at 10000 µg/mL was determined as 18.5 mm. Moreover, the “Activity against gram-positive bacteria” value in the series on gram-positive bacteria is given as “active”. The “Activity against gram-negative bacteria” value in the series with gram-negative bacteria is reported as “active”. For the same compound, the Solubility in solvents result in “Solubility in solvents” (acetone) is listed as “sparingly soluble”; in “Solubility in solvents” (benzene) it was “Insoluble”; in the series “Solubility in solvents” (chloroform), “Insoluble”; in the series “Solubility in solvents” (diethyl ether), “Insoluble”; in “Solubility in solvents” (dimethylsulfoxide), “soluble”; in “Solubility in solvents” (ethanol), “sparingly soluble”. In addition, the Solubility in solvents result is “Insoluble” in “Solubility in solvents” (ethyl acetate); “Insoluble” in the series “Solubility in solvents” (hexane); “soluble” in “Solubility in solvents” (methanol); “Insoluble” in the series “Solubility in solvents” (petroleum ether); “sparingly soluble” in “Solubility in solvents” (pyridine); “readily soluble” in the series “Solubility in solvents” (water). For the same compound, the Stability result is listed as “Stable” in series [12] (setting [14]) and “unstable” in series [12] (over pH 8.5). Further, the “Basicity, neutrality or acidity” value in series [13] was “Acid”.
Regarding `COC1(NC(=O)C(C)NC(=O)CCC(N)C(=O)O)CN(S(=O)(=O)O)C1=O` (stereo not shown) [SB-72310 sodium salt], the Acute toxicity entry in the series on mice is recorded as “low”. Besides, the Deaths entry in the series with mice (500 mg/kg) is “no deaths”. In addition, the Solubility in solvents result in “Solubility in solvents” (acetone) is recorded as “Insoluble”; in “Solubility in solvents” (benzene), “Insoluble”; in “Solubility in solvents” (chloroform), “Insoluble”; in “Solubility in solvents” (diethyl ether), “Insoluble”; in “Solubility in solvents” (dimethylsulfoxide), “soluble”; in the series “Solubility in solvents” (ethanol), “sparingly soluble”. Further, the Solubility in solvents entry is listed as “Insoluble” in the series “Solubility in solvents” (ethyl acetate); “Insoluble” in the series “Solubility in solvents” (hexane); “sparingly soluble” in “Solubility in solvents” (methanol); “Insoluble” in “Solubility in solvents” (petroleum ether); “sparingly soluble” in the series “Solubility in solvents” (pyridine); “readily soluble” in the series “Solubility in solvents” (water). The Stability result in series [12] (setting [14]) is “Stable”; in series [12] (over pH 8.5), “unstable”.
